In US10011616B2, “Boron-containing small molecules as antiprotozoal1 agents” (MMV MEDICINES FOR MALARIA VENTURE, priority 2015, dated 2018):
Counter-ions that a name gives are not always drawn.

What was measured:
[1] = test system: 3D7 strain of Plasmodium falciparum; assay: In vitro activity against 3D7 strain of Plasmodium falciparum ([3H]-hypoxanthine incorporation assay); type: cell-based; conditions: Erythrocyte, 48 h, P. falciparum 3D7 in human erythrocytes, 2 d, growth inhibition, read-out: IC50: 1 Org. Growth P. falciparum 3D7, 2 d (LPS_00570)
Description: In Vitro Activity Against Plasmodium falciparum a) Against 3D7 Strain of Plasmodium falciparum Inhibition of 3D7 strain parasites was assessed using the [^3H]-hypoxanthine incorporation assay (Desjardins, et al. Antimicrob. Agents Chemother. 1979, 16, 710-718). Briefly, parasites were cultured in human erythrocytes (from the Spanish Red Cross blood bank) using RPMI-1640 culture media (Gibco) supplemented with 0.5% Albumax II (Invitrogen), 2% D-sucrose (Sigma-Aldrich), 0.3% glutamine (Sigma-Aldrich), and 5 mM hypoxanthine (Sigma-Aldrich). Cultures were maintained at 37° C. at an atmosphere of 5% O2, 5% CO2, and […]. To assess inhibition, asynchronous parasite cultures with 0.5% parasitemia and 2% hematocrit were exposed to 3-fold serial dilutions of test compounds for 24 hours in 96 well plate cultures (Costar #3894). After 24 hours, [^3H]-hypoxanthine was added, plates were incubated for an additional 24 hours, and parasites were harvested on glass fiber filters (Wallac #1450-421) using a cell harvester 96 (TOMTEC, Perkin Elmer). Filters were dried on scintillator sheets (MeltiLex A, PerkinElmer #1450-441) to determine incorporation of [^3H]-hypoxanthine. Radioactivity was measured using a microbeta counter (Perkin Elmer). Data are normalized using the incorporation of the positive control (infected erythrocytes without drug). IC50 values were determined using Excel and Grafit 5 software. Values were determined from at least three independent experiments, and standard deviations were calculated.

[2] = test system: W2 strain of Plasmodium falciparum; assay: In vitro activity against W2 strain of Plasmodium falciparum (YOYO-1 flow cytometry); type: cell-based; conditions: Erythrocyte, 48 h, P. falciparum W2 in human erythrocytes, 2 d, growth inhibition, read-out: IC50: 1 Org. Growth P. falciparum W2, 2 d (LPS_00451)
Description: In Vitro Activity Against Plasmodium falciparum
b) Against W2 Strain of Plasmodium falciparum
W2 strain P. falciparum parasites were cultured in human erythrocytes and RPMI-1640 culture media with either 10% human serum or 0.5% Albumax serum substitute under 3% O2, 5% CO2, and 92% N2. Parasites synchronized to ring stage by treatments with 5% D-sorbitol were cultured with serial dilutions of benzoxaboroles from 5 to 10 mM stocks in 96 well microplate cultures including 200 μL of media/well, 2% hematocrit, and 1% parasitemia. At the completion of 48 h incubations, when untreated cultures contained new rings, parasites were fixed with 2% formaldehyde for 48 h, and 5 μL aliquots were transferred to another 96 well plate containing 150 μL/well of staining solution (100 mM NH4Cl, 0.1% Triton X-100, and 1 nM YOYO-1 in PBS). Parasites per erythrocyte were then determined by flow cytometry from plots of forward scatter against fluorescence (excitation 488 nm, emission 520 nm) using a FacSort flow cytometer (Beckton Dickinson) equipped with an AMS Loader (Cytek Development). All values were normalized to percent control activity, and IC50s were calculated using the Prism 3.0 program (GRAPHPAD Software). Goodness of fit was assessed by R^2 values, and meaningful dose-response curves yielded R^2 values >0.95.

SMILES: Cc1c(Oc2cnc(C(=O)N3CCNC[C@@H]3CO)cn2)ccc2c1B(O)OC2 [Example 51, (R)-(5-(1-hydroxy-7-methyl-1,3-dihydrobenzo[c][1,2]oxaborol-6-yloxy)pyrazin-2-yl) (2-(hydroxymethyl)piperazin-1-yl)methanone Hydrochloric Acid Salt]
- IC50 [1]: 151 nM
- IC50 [2]: 103 nM

SMILES: CCC[C@H](CO)N(C)C(=O)c1cnc(Oc2ccc3c(c2C)B(O)OC3)cn1 [Example 52, (R)-5-(1-hydroxy-7-methyl-1,3-dihydrobenzo[c][1,2]oxaborol-6-yloxy)-N-(1-hydroxypentan-2-yl)-N-methylpyrazine-2-carboxamide]
- IC50 [1]: 252 nM
- IC50 [2]: 48.1 nM

SMILES: CC[C@H](NC(=O)c1cnc(Oc2ccc3c(c2C)B(O)OC3)cn1)C(C)(C)O [Example 53, (S)—N-(2-hydroxy-2-methylpentan-3-yl)-5-(1-hydroxy-7-methyl-1,3-dihydrobenzo[c][1,2]oxaborol-6-yloxy)pyrazine-2-carboxamide]
- IC50 [1]: 829 nM
- IC50 [2]: 279 nM

SMILES: CCC1(O)CN(C(=O)c2cnc(Oc3ccc4c(c3C)B(O)OC4)cn2)C1 [Example 54, (3-ethyl-3-hydroxyazetidin-1-yl)(5-((1-hydroxy-7-methyl-1,3-dihydrobenzo[c][1,2]oxaborol-6-yl)oxy)pyrazin-2-yl)methanone]
- IC50 [1]: 87 nM
- IC50 [2]: 28.9 nM

SMILES: Cc1c(Oc2cnc(C(=O)N3CC(O)(C4CC4)C3)cn2)ccc2c1B(O)OC2 [Example 55, (3-cyclopropyl-3-hydroxyazetidin-1-yl) (5-((1-hydroxy-7-methyl-1,3-dihydrobenzo[c][1,2]oxaborol-6-yl)oxy)pyrazin-2-yl)methanone]
- IC50 [1]: 234 nM
- IC50 [2]: 51.7 nM

SMILES: CCCC1(O)CN(C(=O)c2cnc(Oc3ccc4c(c3C)B(O)OC4)cn2)C1 [Example 56, (3-hydroxy-3-propylazetidin-1-yl) (5-((1-hydroxy-7-methyl-1,3-dihydrobenzo[c][1,2]oxaborol-6-yl)oxy)pyrazin-2-yl)methanone]
- IC50 [1]: 137 nM
- IC50 [2]: 15.9 nM

SMILES: Cc1c(Oc2cnc(C(=O)N3CC(O)(C(C)C)C3)cn2)ccc2c1B(O)OC2 [Example 57, (3-hydroxy-3-isopropylazetidin-1-yl) (5-((1-hydroxy-7-methyl-1,3-dihydrobenzo[c][1,2]oxaborol-6-yl)oxy)pyrazin-2-yl)methanone]
- IC50 [1]: 369 nM
- IC50 [2]: 40.7 nM

SMILES: Cc1c(Oc2cnc(C(=O)N3CC(O)(C(F)(F)F)C3)cn2)ccc2c1B(O)OC2 [Example 58, (3-hydroxy-3-(trifluoromethyl)azetidin-1-yl) (5-((1-hydroxy-7-methyl-1,3-dihydrobenzo[c][1,2]oxaborol-6-yl)oxy)pyrazin-2-yl)methanone]
- IC50 [1]: 13.9 nM
- IC50 [2]: 6.6 nM
